Source: patent US12570642B2, “GLP-IR modulating compounds” (Gilead Sciences, Inc., priority 2021, dated 2026)

Target: GLP-1R (Homo sapiens, UniProt P43220)
Experiment: GLP-1R Activation - cAMP Assay
Format: cell-based
Details: cAMP increase in CHO cells stably expressing GLP-1R; each compound run on one of the two cAMP assays (Assay 1 or Assay 2, not specified)
Procedure, shortened: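 cAMP rise read by HTRF after 30 min agonist exposure (10-point titration, 37 °C) in HBSS/20 mM Hepes/0.1% BSA, following 1 h pre-incubation. Cells: stable GLP-1R CHO line, 1,000/well, seeded overnight. Sigmoidal fit of response vs log concentration gives EC50.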

GLP-1R, sequence (P43220 24-463): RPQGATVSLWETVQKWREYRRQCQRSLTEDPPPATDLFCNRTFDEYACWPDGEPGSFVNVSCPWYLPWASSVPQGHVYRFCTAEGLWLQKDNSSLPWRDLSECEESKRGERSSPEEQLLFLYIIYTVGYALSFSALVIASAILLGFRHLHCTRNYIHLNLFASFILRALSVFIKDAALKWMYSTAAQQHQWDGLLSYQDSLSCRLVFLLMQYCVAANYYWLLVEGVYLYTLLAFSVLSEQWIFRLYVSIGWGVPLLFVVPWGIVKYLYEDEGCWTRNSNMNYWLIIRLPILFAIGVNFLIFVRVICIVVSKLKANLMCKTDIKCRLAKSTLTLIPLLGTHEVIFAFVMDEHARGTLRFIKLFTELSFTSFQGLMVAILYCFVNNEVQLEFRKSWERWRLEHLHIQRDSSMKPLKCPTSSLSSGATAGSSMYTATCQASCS

SMILES | EC50 [nM]
COCCn1c(Cc2c(F)cc(-c3cccc(OCc4ccc(Cl)cc4F)n3)c(F)c2F)nc2c(F)cc(C(=O)O)cc21 [Example 251, 2-(4-(6-((4-chloro-2-fluorobenzyl)oxy)pyridin-2-yl)-2,3,6-trifluorobenzyl)-4-fluoro-1-(2-methoxyethyl)-1H-benzo[d]imidazole-6-carboxylic acid] | 0.079
COCCn1c(Cc2c(F)cc(-c3cccc(OCc4ccc(-n5ccnn5)nc4)n3)c(F)c2F)nc2c(F)cc(C(=O)O)cc21 [Example 253, 2-(4-(6-((6-(1H-1,2,3-triazol-1-yl)pyridin-3-yl)methoxy)pyridin-2-yl)-2,3,6-trifluorobenzyl)-4-fluoro-1-(2-methoxyethyl)-1H-benzo[d]imidazole-6-carboxylic acid] | 0.071
COCCn1c(Cc2cc(F)c(-c3cccc(OCc4ccc(Cl)cc4)n3)cc2Cl)nc2c(F)cc(C(=O)O)cc21 [Example 255, 2-(2-chloro-4-(6-((4-chlorobenzyl)oxy)pyridin-2-yl)-5-fluorobenzyl)-4-fluoro-1-(2-methoxyethyl)-1H-benzo[d]imidazole-6-carboxylic acid] | 0.108
COCCn1c(Cc2cc(F)c(-c3cccc(OCc4ccc5c(c4)CN(C(=O)OC)C5)n3)cc2Cl)nc2c(F)cc(C(=O)O)cc21 [Example 258, 2-(2-chloro-5-fluoro-4-(6-((2-(methoxycarbonyl)isoindolin-5-yl)methoxy)pyridin-2-yl)benzyl)-4-fluoro-1-(2-methoxyethyl)-1H-benzo[d]imidazole-6-carboxylic acid] | 0.24
COC(=O)N1Cc2ccc(COc3cccc(-c4cc(F)c(Cc5nc6c(F)cc(C(=O)O)cc6n5[C@@H]5COCC5(C)C)cc4F)n3)cc2C1 [Example 263, (S)-2-(2,5-difluoro-4-(6-((2-(methoxycarbonyl)isoindolin-5-yl)methoxy)pyridin-2-yl)benzyl)-1-(4,4-dimethyltetrahydrofuran-3-yl)-4-fluoro-1H-benzo[d]imidazole-6-carboxylic acid] | 0.709
N#Cc1ccc(COc2cccc(-c3cc(F)c(Cc4nc5ccc(C(=O)O)cc5n4CC4(C5CC5)CCCO4)cc3F)n2)c(F)c1 (stereo not drawn) [Example 273, 2-(4-(6-((4-cyano-2-fluorobenzyl)oxy)pyridin-2-yl)-2,5-difluorobenzyl)-1-((2-cyclopropyltetrahydrofuran-2-yl)methyl)-1H-benzo[d]imidazole-6-carboxylic acid] | 0.942
N#Cc1ccc(COc2cccc(-c3cc(F)c(Cc4nc5ccc(C(=O)O)cc5n4CC4CC5(CC5)CO4)cc3F)n2)c(F)c1 (stereo not drawn) [Example 274, 1-(5-oxaspiro[2.4]heptan-6-ylmethyl)-2-(4-(6-((4-cyano-2-fluorobenzyl)oxy)pyridin-2-yl)-2,5-difluorobenzyl)-1H-benzo[d]imidazole-6-carboxylic acid] | 0.643
CC1(C)COC[C@H]1n1c(Cc2ccc(-c3ccc(F)c(OCc4ccc(C#N)cc4F)n3)cc2)nc2ccc(C(=O)O)cc21 [Example 277, (S)-2-(4-(6-((4-cyano-2-fluorobenzyl)oxy)-5-fluoropyridin-2-yl)benzyl)-1-(4,4-dimethyltetrahydrofuran-3-yl)-1H-benzo[d]imidazole-6-carboxylic acid] | 0.34
COCCn1c(Cc2c(F)cc(-c3cccc(OCc4ccc(C#N)cc4)n3)c(F)c2F)nc2ccc(C(=O)O)cc21 [Example 281, 2-(4-(6-((4-cyanobenzyl)oxy)pyridin-2-yl)-2,3,6-trifluorobenzyl)-1-(2-methoxyethyl)-1H-benzo[d]imidazole-6-carboxylic acid] | 0.655
CC1(C)COC[C@H]1n1c(Cc2c(F)cc(-c3ccc(F)c(OCc4ccc(C#N)cc4)n3)c(F)c2F)nc2ccc(C(=O)O)cc21 [Example 283, (S)-2-(4-(6-((4-cyanobenzyl)oxy)-5-fluoropyridin-2-yl)-2,3,6-trifluorobenzyl)-1-(4,4-dimethyltetrahydrofuran-3-yl)-1H-benzo[d]imidazole-6-carboxylic acid] | 0.477
CC1(C)COC[C@H]1n1c(Cc2cc(F)c(-c3cccc(OCc4ncc(Cl)cc4F)n3)cc2F)nc2c(F)cc(C(=O)O)cc21 [Example 287, (S)-2-(4-(6-((5-chloro-3-fluoropyridin-2-yl)methoxy)pyridin-2-yl)-2,5-difluorobenzyl)-1-(4,4-dimethyltetrahydrofuran-3-yl)-4-fluoro-1H-benzo[d]imidazole-6-carboxylic acid] | 0.051

The next lines start with the values.

EC50 [nM] | SMILES
0.059 | Cc1ccc(COc2cccc(-c3cc(F)c(Cc4nc5ccc(C(=O)O)cc5n4[C@@H]4COCC4(C)C)cc3F)n2)c(F)n1 [Example 252, (S)-2-(2,5-difluoro-4-(6-((2-fluoro-6-methylpyridin-3-yl)methoxy)pyridin-2-yl)benzyl)-1-(4,4-dimethyltetrahydrofuran-3-yl)-1H-benzo[d]imidazole-6-carboxylic acid]
0.088 | CC1(C)COC[C@H]1n1c(Cc2cc(F)c(-c3cccc(OCc4ccc(-n5ccnn5)nc4)n3)cc2F)nc2ccc(C(=O)O)cc21 [Example 254, (S)-2-(4-(6-((6-(1H-1,2,3-triazol-1-yl)pyridin-3-yl)methoxy)pyridin-2-yl)-2,5-difluorobenzyl)-1-(4,4-dimethyltetrahydrofuran-3-yl)-1H-benzo[d]imidazole-6-carboxylic acid]
0.064 | CC1(C)COC[C@H]1n1c(Cc2cc(F)c(-c3cccc(OCc4ccc(C#N)cc4F)n3)cc2Cl)nc2ccc(C(=O)O)cc21 [Example 257, (S)-2-(2-chloro-4-(6-((4-cyano-2-fluorobenzyl)oxy)pyridin-2-yl)-5-fluorobenzyl)-1-(4,4-dimethyltetrahydrofuran-3-yl)-1H-benzo[d]imidazole-6-carboxylic acid]
0.155 | CC1(C)COCC1n1c(Cc2cc(F)c(-c3cccc(OCc4ncc(C(F)(F)F)cc4F)n3)cc2F)nc2c(F)cc(C(=O)O)cc21 (stereo not drawn) [Example 264, 2-(2,5-difluoro-4-(6-((3-fluoro-5-(trifluoromethyl)pyridin-2-yl)methoxy)pyridin-2-yl)benzyl)-1-(4,4-dimethyltetrahydrofuran-3-yl)-4-fluoro-1H-benzo[d]imidazole-6-carboxylic acid]
0.171 | Cc1cc(Cc2nc3c(F)cc(C(=O)O)cc3n2[C@@H]2COCC2(C)C)c(F)cc1-c1ccnc(OCc2ccc(C#N)cc2F)n1 [Example 265, (S)-2-(4-(2-((4-cyano-2-fluorobenzyl)oxy)pyrimidin-4-yl)-2-fluoro-5-methylbenzyl)-1-(4,4-dimethyltetrahydrofuran-3-yl)-4-fluoro-1H-benzo[d]imidazole-6-carboxylic acid]
0.175 | N#Cc1ccc(COc2cccc(-c3cc(F)c(Cc4nc5ccc(C(=O)O)cc5n4C4COCC45CC5)cc3F)n2)c(F)c1 (stereo not drawn) [Example 268, 2-(4-(6-((4-cyano-2-fluorobenzyl)oxy)pyridin-2-yl)-2,5-difluorobenzyl)-1-(5-oxaspiro[2.4]heptan-7-yl)-1H-benzo[d]imidazole-6-carboxylic acid]
0.085 | Cc1cc(Cc2nc3ccc(C(=O)O)cc3n2[C@@H]2COCC2(C)C)c(F)cc1-c1cccc(OCc2ccc(C#N)cc2F)n1 [Example 278, (S)-2-(4-(6-((4-cyano-2-fluorobenzyl)oxy)pyridin-2-yl)-2-fluoro-5-methylbenzyl)-1-(4,4-dimethyltetrahydrofuran-3-yl)-1H-benzo[d]imidazole-6-carboxylic acid]
0.195 | Cc1cc(Cc2nc3ccc(C(=O)O)cc3n2[C@@H]2COCC2(C)C)c(F)cc1-c1ccc(F)c(OCc2ccc(C#N)cc2F)n1 [Example 279, (S)-2-(4-(6-((4-cyano-2-fluorobenzyl)oxy)-5-fluoropyridin-2-yl)-2-fluoro-5-methylbenzyl)-1-(4,4-dimethyltetrahydrofuran-3-yl)-1H-benzo[d]imidazole-6-carboxylic acid]
0.165 | Cc1cc(Cc2nc3ccc(C(=O)O)cc3n2[C@@H]2COCC2(C)C)c(F)cc1-c1cccc(OCc2ccc(Cl)cc2F)n1 [Example 280, (S)-2-(4-(6-((4-chloro-2-fluorobenzyl)oxy)pyridin-2-yl)-2-fluoro-5-methylbenzyl)-1-(4,4-dimethyltetrahydrofuran-3-yl)-1H-benzo[d]imidazole-6-carboxylic acid]
0.192 | CC1(C)COC[C@H]1n1c(Cc2c(F)cc(-c3ccc(F)c(OCc4ccc(Cl)cc4)n3)c(F)c2F)nc2ccc(C(=O)O)cc21 [Example 282, (S)-2-(4-(6-((4-chlorobenzyl)oxy)-5-fluoropyridin-2-yl)-2,3,6-trifluorobenzyl)-1-(4,4-dimethyltetrahydrofuran-3-yl)-1H-benzo[d]imidazole-6-carboxylic acid]
0.135 | Cc1cc(Cc2nc3ccc(C(=O)O)cc3n2[C@@H]2COCC2(C)C)c(F)cc1-c1ccnc(OCc2ccc(Cl)cc2F)n1 [Example 284, (S)-2-(4-(2-((4-chloro-2-fluorobenzyl)oxy)pyrimidin-4-yl)-2-fluoro-5-methylbenzyl)-1-(4,4-dimethyltetrahydrofuran-3-yl)-1H-benzo[d]imidazole-6-carboxylic acid]
0.096 | CC1(C)COC[C@H]1n1c(Cc2cc(F)c(-c3ccnc(OCc4ccc(C(F)(F)F)cc4F)n3)cc2F)nc2ccc(C(=O)O)cc21 [Example 285, (S)-2-(2,5-difluoro-4-(2-((2-fluoro-4-(trifluoromethyl)benzyl)oxy)pyrimidin-4-yl)benzyl)-1-(4,4-dimethyltetrahydrofuran-3-yl)-1H-benzo[d]imidazole-6-carboxylic acid]
0.099 | Cc1ccc(COc2cccc(-c3cc(F)c(Cc4nc5ccc(C(=O)O)cc5n4C4COCC4(C)C)cc3F)n2)c(Cl)n1 (stereo not drawn) [Example 286, 2-(4-(6-((2-chloro-6-methylpyridin-3-yl)methoxy)pyridin-2-yl)-2,5-difluorobenzyl)-1-(4,4-dimethyltetrahydrofuran-3-yl)-1H-benzo[d]imidazole-6-carboxylic acid]
